Experimental data from US20250230193A1, “CYCLIC COMPOUND HAVING SELECTIVE KRAS INHIBITORY EFFECT ON HRAS AND NRAS” (CHUGAI SEIYAKU KABUSHIKI KAISHA, priority 2022, published 2025).

Tests used:
[1] = biological target: GDP-bound NRAS wild-type protein (Homo sapiens, UniProt P01111); assay: Binding to NRAS by surface plasmon resonance (SPR), Single Cycle Kinetics; conditions: KD ratio, GDP-bound NRAS wild-type vs GDP-bound KRAS wild-type, SPR
[2] = biological target: GDP-bound HRAS wild-type protein (Homo sapiens, UniProt P01112); assay: Binding to HRAS by surface plasmon resonance (SPR), Single Cycle Kinetics; conditions: KD ratio, GDP-bound HRAS wild-type vs GDP-bound KRAS wild-type, SPR
GDP-bound HRAS wild-type protein, sequence (P01112 whole entry): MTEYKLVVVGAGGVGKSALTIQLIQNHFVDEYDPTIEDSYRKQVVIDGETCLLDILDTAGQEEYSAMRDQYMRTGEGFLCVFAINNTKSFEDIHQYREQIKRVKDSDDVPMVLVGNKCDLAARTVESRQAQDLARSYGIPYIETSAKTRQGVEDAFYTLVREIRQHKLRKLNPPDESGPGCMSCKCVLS

GDP-bound NRAS wild-type protein, sequence (P01111 whole entry): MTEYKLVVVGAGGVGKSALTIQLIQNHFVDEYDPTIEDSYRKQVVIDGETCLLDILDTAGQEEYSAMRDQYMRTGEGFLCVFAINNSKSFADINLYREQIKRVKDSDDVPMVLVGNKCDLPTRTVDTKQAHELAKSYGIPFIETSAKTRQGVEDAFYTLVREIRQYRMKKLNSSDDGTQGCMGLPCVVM

## CC[C@H](C)[C@@H]1NC(=O)[C@H](C2CCC2)N(C)C(=O)C[C@@H](C(=O)N(C)CC)N(C)C(=O)[C@H](C2CCCC2)N(C)C(=O)C2(CC(C)(C)C2)NC(=O)[C@@H]2C[C@H](C)CN2C(=O)[C@H](CCc2cc(F)c(C(F)(F)F)c(F)c2)NC(=O)CN(C)C(=O)[C@H](Cc2ccc(C(F)(F)F)cc2)N2CC/C=C\C[C@@H](C2=O)N(C)C(=O)CN(C)C1=O [PP1984]
[1]
  NRAS/KRAS (ratio of KD value for NRAS to KD value for KRAS): A (a compound having 10 or more and less than 20 is denoted as A)
[2]
  HRAS/KRAS (ratio of KD value for HRAS to KD value for KRAS): A (a compound having 10 or more and less than 20 is denoted as A)

## CCO[C@@H]1C[C@H]2C(=O)NC3(CC(C)(C)C3)C(=O)N(C)[C@@H](C3CCCC3)C(=O)N(C)[C@H](C(=O)N(C)C)CC(=O)N(C)[C@@H](C3CCC3)C(=O)N[C@@H]([C@@H](C)CC)C(=O)N(C)CC(=O)N(C)[C@H]3C/C=C\CCN(C3=O)[C@@H](Cc3ccc(C(F)(F)F)cc3)C(=O)N(C)CC(=O)N[C@@H](CCc3ccc(C(F)(F)F)c(OC)c3)C(=O)N2C1 [PP1987]
[1]
  NRAS/KRAS (ratio of KD value for NRAS to KD value for KRAS): A (a compound having 10 or more and less than 20 is denoted as A)
[2]
  HRAS/KRAS (ratio of KD value for HRAS to KD value for KRAS): A (a compound having 10 or more and less than 20 is denoted as A)

## CCCN(C)C(=O)[C@@H]1CC(=O)N(C)[C@@H](COCC)C(=O)N[C@@H]([C@@H](C)CC)C(=O)N(C)CC(=O)N(C)[C@H]2C/C=C\CCN(C2=O)[C@@H](Cc2ccc(C(F)(F)F)cc2)C(=O)N(C)CC(=O)N[C@@H](CCc2cc(F)c(C(F)(F)F)c(F)c2)C(=O)N2C[C@H](OCC)C[C@H]2C(=O)NC2(CCC2)C(=O)N(C)[C@@H](C2CCCC2)C(=O)N1C [PP1988]
[1]
  NRAS/KRAS (ratio of KD value for NRAS to KD value for KRAS): A (a compound having 10 or more and less than 20 is denoted as A)
[2]
  HRAS/KRAS (ratio of KD value for HRAS to KD value for KRAS): A (a compound having 10 or more and less than 20 is denoted as A)

## CCCN(C)C(=O)[C@@H]1CC(=O)N(C)[C@@H](CC(F)F)C(=O)N[C@@H]([C@@H](C)CC)C(=O)N(C)CC(=O)N(C)[C@H]2C/C=C\CCN(C2=O)[C@@H](Cc2ccc(C(F)(F)F)cc2)C(=O)N(C)CC(=O)N[C@@H](CCc2ccc(C(F)(F)F)c(OC)c2)C(=O)N2C[C@@H](C)C[C@H]2C(=O)NC2(CC(C)(C)C2)C(=O)N(C)[C@@H](C2CCCC2)C(=O)N1C [PP1989]
[1]
  NRAS/KRAS (ratio of KD value for NRAS to KD value for KRAS): A (a compound having 10 or more and less than 20 is denoted as A)
[2]
  HRAS/KRAS (ratio of KD value for HRAS to KD value for KRAS): A (a compound having 10 or more and less than 20 is denoted as A)

## CCO[C@@H]1C[C@H]2C(=O)NC3(CCC3)C(=O)N(C)[C@@H](C3CCCC3)C(=O)N(C)[C@H](C(=O)N(C)CC)CC(=O)N(C)[C@@H](C(C)C)C(=O)N[C@@H]([C@@H](C)CC)C(=O)N(C)CC(=O)N(C)[C@H]3C/C=C\CCN(C3=O)[C@@H](Cc3ccc(C(F)(F)F)cc3)C(=O)N(C)CC(=O)N[C@@H](CCc3cc(F)c(C(F)(F)F)c(F)c3)C(=O)N2C1 [PP1990]
[1]
  NRAS/KRAS (ratio of KD value for NRAS to KD value for KRAS): A (a compound having 10 or more and less than 20 is denoted as A)
[2]
  HRAS/KRAS (ratio of KD value for HRAS to KD value for KRAS): A (a compound having 10 or more and less than 20 is denoted as A)

## CCCN(C)C(=O)[C@@H]1CC(=O)N(C)[C@@H](COCC)C(=O)N[C@@H]([C@@H](C)CC)C(=O)N(C)CC(=O)N(C)[C@H]2C/C=C\CCN(C2=O)[C@@H](Cc2ccc(C(F)(F)F)cc2)C(=O)N(C)CC(=O)N[C@@H](CCc2ccc(C(F)(F)F)c(OC)c2)C(=O)N2C[C@@H](C)C[C@H]2C(=O)NC2(CC(C)(C)C2)C(=O)N(C)[C@@H](C2CCCC2)C(=O)N1C [PP1991]
[1]
  NRAS/KRAS (ratio of KD value for NRAS to KD value for KRAS): A (a compound having 10 or more and less than 20 is denoted as A)
[2]
  HRAS/KRAS (ratio of KD value for HRAS to KD value for KRAS): A (a compound having 10 or more and less than 20 is denoted as A)

## CCCN(C)C(=O)[C@@H]1CC(=O)N(C)[C@@H](C(C)C)C(=O)N[C@@H]([C@@H](C)CC)C(=O)N(C)CC(=O)N(C)[C@H]2C/C=C\CCN(C2=O)[C@@H](Cc2ccc(C(F)(F)F)cc2)C(=O)N(C)CC(=O)N[C@@H](CCc2cc(F)c(C(F)(F)F)c(F)c2)C(=O)N2C[C@H](OCC)C[C@H]2C(=O)NC2(CCC2)C(=O)N(C)[C@@H](C2CCCC2)C(=O)N1C [PP1992]
[1]
  NRAS/KRAS (ratio of KD value for NRAS to KD value for KRAS): AA (a compound having 20 or more is denoted as AA)
[2]
  HRAS/KRAS (ratio of KD value for HRAS to KD value for KRAS): B (a compound having 3 or more and less than 10 is denoted as B)

## CCOC[C@H]1C(=O)N[C@@H]([C@@H](C)CC)C(=O)N(C)CC(=O)N(C)[C@H]2C/C=C\CCN(C2=O)[C@@H](Cc2ccc(C(F)(F)F)cc2)C(=O)N(C)CC(=O)N[C@@H](CCc2ccc(C(F)(F)F)c(OC)c2)C(=O)N2C[C@@H](C)C[C@H]2C(=O)NC2(CC(C)(C)C2)C(=O)N(C)[C@@H](C2CCCC2)C(=O)N(C)[C@H](C(=O)N(C)CC)CC(=O)N1C [PP1993]
[1]
  NRAS/KRAS (ratio of KD value for NRAS to KD value for KRAS): A (a compound having 10 or more and less than 20 is denoted as A)
[2]
  HRAS/KRAS (ratio of KD value for HRAS to KD value for KRAS): A (a compound having 10 or more and less than 20 is denoted as A)

## CCCN(C)C(=O)[C@@H]1CC(=O)N(C)[C@@H](C2CC2)C(=O)N[C@@H]([C@@H](C)CC)C(=O)N(C)CC(=O)N(C)[C@H]2C/C=C\CCN(C2=O)[C@@H](Cc2ccc(C(F)(F)F)cc2)C(=O)N(C)CC(=O)N[C@@H](CCc2cc(F)c(C(F)(F)F)c(F)c2)C(=O)N2C[C@H](OCC)C[C@H]2C(=O)NC2(CCC2)C(=O)N(C)[C@@H](C2CCCC2)C(=O)N1C [PP1994]
[1]
  NRAS/KRAS (ratio of KD value for NRAS to KD value for KRAS): AA (a compound having 20 or more is denoted as AA)
[2]
  HRAS/KRAS (ratio of KD value for HRAS to KD value for KRAS): A (a compound having 10 or more and less than 20 is denoted as A)

## CCCOC[C@H]1C(=O)N[C@@H]([C@@H](C)CC)C(=O)N(C)CC(=O)N(C)[C@H]2C/C=C\CCN(C2=O)[C@@H](Cc2ccc(C(F)(F)F)cc2)C(=O)N(C)CC(=O)N[C@@H](CCc2ccc(C(F)(F)F)c(OC)c2)C(=O)N2C[C@@H](C)C[C@H]2C(=O)NC2(CC(C)(C)C2)C(=O)N(C)[C@@H](C2CCCC2)C(=O)N(C)[C@H](C(=O)N(C)CC)CC(=O)N1C [PP1995]
[1]
  NRAS/KRAS (ratio of KD value for NRAS to KD value for KRAS): A (a compound having 10 or more and less than 20 is denoted as A)
[2]
  HRAS/KRAS (ratio of KD value for HRAS to KD value for KRAS): B (a compound having 3 or more and less than 10 is denoted as B)

## CCO[C@@H]1C[C@H]2C(=O)NC3(CCC3)C(=O)N(C)[C@@H](C3CCCC3)C(=O)N(C)[C@H](C(=O)N(C)CC)CC(=O)N(C)[C@@H](C3CCC3)C(=O)N[C@@H]([C@@H](C)CC)C(=O)N(C)CC(=O)N(C)[C@H]3C/C=C\CCN(C3=O)[C@@H](Cc3ccc(C(F)(F)F)cc3)C(=O)N(C)CC(=O)N[C@@H](CCc3cc(F)c(C(F)(F)F)c(F)c3)C(=O)N2C1 [PP1996]
[1]
  NRAS/KRAS (ratio of KD value for NRAS to KD value for KRAS): A (a compound having 10 or more and less than 20 is denoted as A)
[2]
  HRAS/KRAS (ratio of KD value for HRAS to KD value for KRAS): B (a compound having 3 or more and less than 10 is denoted as B)

## CCCOC[C@H]1C(=O)N[C@@H]([C@@H](C)CC)C(=O)N(C)CC(=O)N(C)[C@H]2C/C=C\CCN(C2=O)[C@@H](Cc2ccc(C(F)(F)F)cc2)C(=O)N(C)CC(=O)N[C@@H](CCc2ccc(C(F)(F)F)c(OC)c2)C(=O)N2C[C@@H](C)C[C@H]2C(=O)NC2(CC(C)(C)C2)C(=O)N(C)[C@@H](C2CCCC2)C(=O)N(C)[C@H](C(=O)N(C)C)CC(=O)N1C [PP1997]
[1]
  NRAS/KRAS (ratio of KD value for NRAS to KD value for KRAS): A (a compound having 10 or more and less than 20 is denoted as A)
[2]
  HRAS/KRAS (ratio of KD value for HRAS to KD value for KRAS): B (a compound having 3 or more and less than 10 is denoted as B)

## CCCN(C)C(=O)[C@@H]1CC(=O)N(C)[C@@H](C2CCC2)C(=O)N[C@@H]([C@@H](C)CC)C(=O)N(C)CC(=O)N(C)[C@H]2C/C=C\CCN(C2=O)[C@@H](Cc2ccc(C(F)(F)F)cc2)C(=O)N(C)CC(=O)N[C@@H](CCc2cc(F)c(C(F)(F)F)c(F)c2)C(=O)N2C[C@H](OCC)C[C@H]2C(=O)NC2(CCC2)C(=O)N(C)[C@@H](C2CCCC2)C(=O)N1C [PP1998]
[1]
  NRAS/KRAS (ratio of KD value for NRAS to KD value for KRAS): A (a compound having 10 or more and less than 20 is denoted as A)
[2]
  HRAS/KRAS (ratio of KD value for HRAS to KD value for KRAS): B (a compound having 3 or more and less than 10 is denoted as B)

## CC[C@H](C)[C@@H]1NC(=O)[C@H](CCOC)N(C)C(=O)C[C@@H](C(=O)N(C)CC)N(C)C(=O)[C@H](C2CCCC2)N(C)C(=O)C2(CC(C)(C)C2)NC(=O)[C@@H]2C[C@H](C)CN2C(=O)[C@H](CCc2ccc(C(F)(F)F)c(OC)c2)NC(=O)CN(C)C(=O)[C@H](Cc2ccc(C(F)(F)F)cc2)N2CC/C=C\C[C@@H](C2=O)N(C)C(=O)CN(C)C1=O [PP1999]
[1]
  NRAS/KRAS (ratio of KD value for NRAS to KD value for KRAS): A (a compound having 10 or more and less than 20 is denoted as A)
[2]
  HRAS/KRAS (ratio of KD value for HRAS to KD value for KRAS): B (a compound having 3 or more and less than 10 is denoted as B)

## CCCN(C)C(=O)[C@@H]1CC(=O)N(C)[C@@H](CC(F)F)C(=O)N[C@@H]([C@@H](C)CC)C(=O)N(C)CC(=O)N(C)[C@H]2C/C=C\CCN(C2=O)[C@@H](Cc2ccc(C(F)(F)F)cc2)C(=O)N(C)CC(=O)N[C@@H](CCc2cc(F)c(C(F)(F)F)c(F)c2)C(=O)N2C[C@@H](C)C[C@H]2C(=O)NC2(CCC2)C(=O)N(C)[C@@H](C2CCCC2)C(=O)N1C [PP2000]
[1]
  NRAS/KRAS (ratio of KD value for NRAS to KD value for KRAS): A (a compound having 10 or more and less than 20 is denoted as A)
[2]
  HRAS/KRAS (ratio of KD value for HRAS to KD value for KRAS): B (a compound having 3 or more and less than 10 is denoted as B)

## CCCN(C)C(=O)[C@@H]1CC(=O)N(C)[C@@H](CCOC)C(=O)N[C@@H]([C@@H](C)CC)C(=O)N(C)CC(=O)N(C)[C@H]2C/C=C\CCN(C2=O)[C@@H](Cc2ccc(C(F)(F)F)cc2)C(=O)N(C)CC(=O)N[C@@H](CCc2ccc(C(F)(F)F)c(OC)c2)C(=O)N2C[C@@H](C)C[C@H]2C(=O)NC2(CC(C)(C)C2)C(=O)N(C)[C@@H](C2CCCC2)C(=O)N1C [PP2001]
[1]
  NRAS/KRAS (ratio of KD value for NRAS to KD value for KRAS): A (a compound having 10 or more and less than 20 is denoted as A)
[2]
  HRAS/KRAS (ratio of KD value for HRAS to KD value for KRAS): A (a compound having 10 or more and less than 20 is denoted as A)
